SMILES	melting point
O=C(O)COCCCCC1CCCN1c1cnc(-c2ccccc2)c(-c2ccccc2)n1 (racemic) [Example 57, (±)-2-{4-[1-(5,6-diphenylpyrazin-2-yl)pyrrolidin-2-yl]butyloxy}acetic acid]	138 to 140 °C
CN(C/C=C/COCC(=O)O)c1cnc(-c2ccccc2)c(-c2ccccc2)n1 [Example 72, 2-{4-[N-(5,6-diphenylpyrazin-2-yl)-N-methylamino]-(E)-2-buten-1-yloxy]acetic acid]	128 to 130 °C
CN(CCCCCCC(=O)O)c1cnc(-c2ccccc2)c(-c2ccccc2)n1 [Example 65, 7-[N-(5,6-diphenylpyrazin-2-yl)-N-methylamino]heptanoic acid]	114 to 118 °C
CN(CCCCCCCCC(=O)O)c1cnc(-c2ccccc2)c(-c2ccccc2)n1 [Example 67, 9-[N-(5,6-diphenylpyrazin-2-yl)-N-methylamino]nonanoic acid]	103 to 105 °C
CN(c1cnc(-c2ccccc2)c(-c2ccccc2)n1)C1CCc2c(OCC(=O)O)cccc21 (stereo not drawn) [Example 62, 4-(carboxymethoxy)-1-[N-(5,6-diphenylpyrazin-2-yl)-N-methylamino]indane]	182 to 184 °C
CN(CCCCCC(=O)O)c1cnc(-c2ccccc2)c(-c2ccccc2)n1 [Example 68, 6-[N-(5,6-diphenylpyrazin-2-yl)-N-methylamino]hexanoic acid]	159 to 160 °C
CC(C)N(CCCCOCC(=O)O)c1nnc(-c2ccccc2)c(-c2ccccc2)n1 [Example 49, 2-{4-[N-(5,6-diphenyl-1,2,4-triazin-3-yl)-N-isopropylamino]butyloxy}acetic acid]	128 to 130 °C
CN(C[C@H](O)c1cccc(OCC(=O)O)c1)c1cnc(-c2ccccc2)c(-c2ccccc2)n1 [Example 59, (R)-(+)-2-[3-{2-[N-(5,6-diphenylpyrazin-2-yl)-N-methylamino]-1-hydroxyethyl}phenoxy]acetic acid]	158 to 159 °C
CN(C/C=C\COCC(=O)O)c1cnc(-c2ccccc2)c(-c2ccccc2)n1 [Example 71, 2-{4-[N-(5,6-diphenylpyrazin-2-yl)-N-methylamino]-(Z)-2-buten-1-yloxy]acetic acid]	148 to 150 °C
CN(CCc1cccc(OCC(=O)O)c1)c1cnc(-c2ccccc2)c(-c2ccccc2)n1 [Example 61, 2-[3-{2-[N-(5,6-diphenylpyrazin-2-yl)-N-methylamino]ethyl}phenoxy]acetic acid]	174 to 176 °C
CN(CCCCOCC(=O)O)c1nnc(-c2ccccc2)c(-c2ccccc2)n1 [Example 56, 2-{4-[N-(5,6-diphenyl-1,2,4-triazin-3-yl)-N-methylamino]butyloxy}acetic acid]	108 to 110 °C
O=C(O)COCCCCN(c1cnc(-c2ccccc2)c(-c2ccccc2)n1)C1CCCCC1 [Example 44, 2-{4-[N-(5,6-diphenylpyrazin-2-yl)-N-cyclohexylamino]butyloxy}acetic acid]	130 to 131 °C
O=C(O)COCCC1CCCN(c2cnc(-c3ccccc3)c(-c3ccccc3)n2)C1 (racemic) [Example 58, (±)-2-{2-[1-(5,6-diphenylpyrazin-2-yl)piperidin-3-yl]ethoxy}acetic acid]	139 to 140 °C
CC(C)N(CCCCS(=O)(=O)CC(=O)O)c1cnc(-c2ccccc2)c(-c2ccccc2)n1 [Example 80, 2-{4-[N-(5,6-diphenylpyrazin-2-yl)-N-isopropylamino]butylsulfonyl}acetic acid]	183 to 185 °C
CN(CC1CCc2c(cccc2OCC(=O)O)C1)c1cnc(-c2ccccc2)c(-c2ccccc2)n1 (stereo not drawn) [Example 77, 5-(carboxymethoxy)-2-{[N-(5,6-diphenylpyrazin-2-yl)-N-methylamino]methyl}-1,2,3,4-tetrahydronaphthalene]	212 to 213 °C
COc1ccc(-c2ncc(N(C)CCCCOCC(=O)O)nc2-c2ccc(OC)cc2)cc1 [Example 51, 2-[4-{N-[5,6-bis(4-methoxyphenyl)pyrazin-2-yl]-N-methylamino}butyloxy]acetic acid]	128 to 130 °C
CN(CCCCCCCC(=O)O)c1cnc(-c2ccccc2)c(-c2ccccc2)n1 [Example 66, 8-[N-(5,6-diphenylpyrazin-2-yl)-N-methylamino]octanoic acid]	116 to 117 °C
O=C(O)COCCCCSc1cnc(-c2ccccc2)c(-c2ccccc2)n1 [Example 76, 2-{4-[(5,6-diphenylpyrazin-2-yl)thio]butyloxy}acetic acid]	86 to 88 °C
CC(C)N(CCCCOCC(=O)O)c1nc(-c2ccccc2)c(-c2ccccc2)nc1Cl [Example 47, 2-{4-[N-(3-chloro-5,6-diphenylpyrazin-2-yl)-N-isopropylamino]butyloxy}acetic acid]	136 to 138 °C
CN(CCCCOCC(=O)O)c1cnc(-c2ccc(F)cc2)c(-c2ccc(F)cc2)n1 [Example 52, 2-[4-{N-[5,6-bis(4-fluorophenyl)pyrazin-2-yl]-N-methylamino}butyloxy]acetic acid]	116 to 118 °C
O=C(O)COCCCC1CCCN1c1cnc(-c2ccccc2)c(-c2ccccc2)n1 (racemic) [Example 55, (±)-2-{3-[1-(5,6-diphenylpyrazin-2-yl)pyrrolidin-2-yl]propyloxy}acetic acid]	137 to 139 °C
Cc1ccc(-c2ncc(N(C)CCCCOCC(=O)O)nc2-c2ccc(C)cc2)cc1 [Example 50, 2-{4-[N-(5,6-di-p-tolylpyrazin-2-yl)-N-methylamino]butyloxy}acetic acid]	161 to 162 °C
CC(C)N(CCCC[S+]([O-])CC(=O)O)c1cnc(-c2ccccc2)c(-c2ccccc2)n1 (stereo not drawn) [Example 79, 2-{4-[N-(5,6-diphenylpyrazin-2-yl)-N-isopropylamino]butylsulfinyl}acetic acid]	117 to 120 °C (dec.)
O=C(O)COCCC1CCN(c2cnc(-c3ccccc3)c(-c3ccccc3)n2)CC1 [Example 54, 2-{2-[1-(5,6-diphenylpyrazin-2-yl)piperidin-4-yl]ethoxy}acetic acid]	173 to 174 °C
O=C(O)COCCCCS(=O)(=O)c1cnc(-c2ccccc2)c(-c2ccccc2)n1 [Example 82, 2-[4-(5,6-diphenylpyrazin-2-sulfonyl)butyloxy]acetic acid]	123 to 125 °C
Cc1ccc(-c2ncc(N(CCCCOCC(=O)O)C(C)C)nc2-c2ccc(C)cc2)cc1 [Example 45, 2-{4-[N-(5,6-di-p-tolylpyrazin-2-yl)-N-isopropylamino]butyloxy}acetic acid]	155 to 156 °C
O=C(O)COCCCCN(c1cnc(-c2ccccc2)c(-c2ccccc2)n1)C1CCCC1 [Example 43, 2-{4-[N-(5,6-diphenylpyrazin-2-yl)-N-cyclopentylamino]butyloxy}acetic acid]	101 to 103 °C
